From patent US11306117B2, “Whitening composition containing novel quercetin-based compound” (AMOREPACIFIC CORPORATION, priority 2017, dated 2022)

Key:
mushroom tyrosinase = test: Inhibition of tyrosinase activity; type: biochemical; details: L-tyrosine, 37° C., 20 minutes, absorbance 490 nm
Method: The effect of New Materials 31 and 32 on inhibiting tyrosinase activity was evaluated.
Specifically, tyrosinase and tyrosine derived from mushroom were obtained from Sigma Chemical. Together with 150 μl of 0.1 M phosphate buffer (pH 6.5), 8 μl of mushroom tyrosinase (2,100 unit/ml) and 0.05 M concentration of L-tyrosine, arbutin and New Materials 31 and 32 were treated at the concentrations of following Table 3, respectively. The tyrosinase activity was evaluated by performing the enzyme reaction at 37° C. for 20 minutes and then measuring absorbance at 490 nm using a microplate reader (Bio-Rad 3550, Richmond, Calif., U.S.A.).

Mel-Ab cell line = test: Inhibition of melanogenesis in Mel-Ab cells (method of Dooley); type: cell-based, C57BL/6; details: melanin by absorbance at 400 nm after 5 days
Method: The effects of New Materials 31 and 32 on inhibiting melanogenesis were compared with Kojic acids which have been known to have an excellent skin whitening effect, and measured.
Specifically, the degree of melanogenesis in cells was measured by a method of Dooley. As the cell line, Mel-Ab cell line (Falcon, U.S.A.) derived from a skin pigment of C57BL/6 was used. Culturing was made under the condition of 37° C., 5% CO2 of a DMEM medium containing 10% placenta serum, 100 nM 12-O-tetradecanoylphorbol-13-acetate, and 1 nM Cholera Toxin. The test materials were treated in the manner where the cultured Mel-Ab cell was isolated with 0.25% trypsin-EDTA, and inoculated again with the same number (1×10^5 cells/well) in the 24-well plate, and then the medium was replaced with a medium containing the test materials for two days from the second day. As the test materials, 5 ppm, 10 ppm, 25 ppm and 50 ppm of New Materials 31 and 32, 25 ppm, 50 ppm and 100 ppm of Kojic acids and DMSO (control) were used. After 5 days, the test materials were treated with 1N-NaOH to dissolve melanin contained in the cell, and the amount of melanin was measured by measuring absorbance at 400 nm. The concentration (IC50) of the material necessary for reducing melanogenesis of melanocyte by half was calculated, and the results are shown in following Table 4.

Compound	IC50 inhibiting tyrosinase activity (mushroom tyrosinase) [ppm]	IC50 inhibiting melanogenesis (Mel-Ab cell line) [ppm]
OC[C@H]1O[C@@H](Oc2ccc(O)cc2)[C@H](O)[C@@H](O)[C@@H]1O [Arbutin, arbutin, reference compound]	149	–
O=c1cc(CO)occ1O [Kojic acids, reference compound]	–	39.36
